ChEMBL document CHEMBL4800727 (2021)

Tests used:
Details in all cases: Compound concentration 10.0 uM
[1] = molecular target: T1, 5-hydroxytryptamine receptor 1A (Homo sapiens) (UniProt P08908)
T1 sequence (whole entry): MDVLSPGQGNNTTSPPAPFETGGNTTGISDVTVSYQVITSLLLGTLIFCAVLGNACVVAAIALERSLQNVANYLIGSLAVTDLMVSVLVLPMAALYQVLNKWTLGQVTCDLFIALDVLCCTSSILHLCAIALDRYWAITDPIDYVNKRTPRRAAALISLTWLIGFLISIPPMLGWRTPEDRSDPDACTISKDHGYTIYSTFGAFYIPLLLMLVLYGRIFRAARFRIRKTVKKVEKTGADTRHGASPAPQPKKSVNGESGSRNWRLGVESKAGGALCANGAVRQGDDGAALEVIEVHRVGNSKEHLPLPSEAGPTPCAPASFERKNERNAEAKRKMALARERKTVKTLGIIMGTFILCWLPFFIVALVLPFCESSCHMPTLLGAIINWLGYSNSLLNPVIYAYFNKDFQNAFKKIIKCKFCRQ

[2] = molecular target: 5-hydroxytryptamine receptor 1D (Homo sapiens) (UniProt P28221)
Sequence of 5-hydroxytryptamine receptor 1D (Homo sapiens) (P28221 whole entry): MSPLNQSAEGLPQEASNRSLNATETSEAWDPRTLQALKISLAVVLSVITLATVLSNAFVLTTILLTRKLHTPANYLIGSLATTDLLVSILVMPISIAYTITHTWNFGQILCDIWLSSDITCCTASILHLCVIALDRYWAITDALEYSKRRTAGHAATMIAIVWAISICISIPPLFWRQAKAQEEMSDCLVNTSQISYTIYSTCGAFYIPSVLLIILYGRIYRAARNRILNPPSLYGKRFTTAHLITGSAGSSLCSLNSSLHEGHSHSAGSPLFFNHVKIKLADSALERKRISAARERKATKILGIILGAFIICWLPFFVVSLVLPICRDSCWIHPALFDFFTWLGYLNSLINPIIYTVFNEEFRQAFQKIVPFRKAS

[3] = molecular target: T2, Muscarinic acetylcholine receptor M4 (Homo sapiens) (UniProt P08173)
T2 sequence (whole entry): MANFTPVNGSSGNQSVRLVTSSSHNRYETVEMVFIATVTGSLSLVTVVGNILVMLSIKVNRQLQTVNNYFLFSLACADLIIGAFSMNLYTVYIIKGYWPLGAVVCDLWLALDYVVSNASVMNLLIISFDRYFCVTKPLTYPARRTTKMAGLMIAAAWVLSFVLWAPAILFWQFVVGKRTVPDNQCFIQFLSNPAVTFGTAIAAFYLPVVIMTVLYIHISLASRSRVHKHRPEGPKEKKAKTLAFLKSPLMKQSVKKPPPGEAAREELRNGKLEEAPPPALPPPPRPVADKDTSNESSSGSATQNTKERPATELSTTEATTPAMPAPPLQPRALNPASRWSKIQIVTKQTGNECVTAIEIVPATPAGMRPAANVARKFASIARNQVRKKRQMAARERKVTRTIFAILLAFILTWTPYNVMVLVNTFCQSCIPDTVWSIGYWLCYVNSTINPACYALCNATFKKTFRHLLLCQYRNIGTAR

[4] = molecular target: Kappa-type opioid receptor (Homo sapiens) (UniProt P41145)
Sequence of Kappa-type opioid receptor (Homo sapiens) (P41145 whole entry): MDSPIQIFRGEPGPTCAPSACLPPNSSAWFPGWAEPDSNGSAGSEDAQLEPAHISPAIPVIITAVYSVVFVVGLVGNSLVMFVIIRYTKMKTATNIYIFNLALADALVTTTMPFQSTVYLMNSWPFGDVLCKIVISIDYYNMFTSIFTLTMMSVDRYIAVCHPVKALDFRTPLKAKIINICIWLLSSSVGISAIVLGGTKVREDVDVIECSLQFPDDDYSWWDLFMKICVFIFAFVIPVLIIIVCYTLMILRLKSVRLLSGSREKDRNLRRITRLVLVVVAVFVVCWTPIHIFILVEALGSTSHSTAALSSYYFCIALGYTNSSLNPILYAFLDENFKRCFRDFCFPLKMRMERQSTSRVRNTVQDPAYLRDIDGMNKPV

[5] = molecular target: Sodium-dependent serotonin transporter (Homo sapiens) (UniProt P31645)
[6] = molecular target: Sodium-dependent noradrenaline transporter (Homo sapiens) (UniProt P23975)
[7] = molecular target: T3, Muscarinic acetylcholine receptor M2 (Homo sapiens) (UniProt P08172)
T3 sequence (whole entry): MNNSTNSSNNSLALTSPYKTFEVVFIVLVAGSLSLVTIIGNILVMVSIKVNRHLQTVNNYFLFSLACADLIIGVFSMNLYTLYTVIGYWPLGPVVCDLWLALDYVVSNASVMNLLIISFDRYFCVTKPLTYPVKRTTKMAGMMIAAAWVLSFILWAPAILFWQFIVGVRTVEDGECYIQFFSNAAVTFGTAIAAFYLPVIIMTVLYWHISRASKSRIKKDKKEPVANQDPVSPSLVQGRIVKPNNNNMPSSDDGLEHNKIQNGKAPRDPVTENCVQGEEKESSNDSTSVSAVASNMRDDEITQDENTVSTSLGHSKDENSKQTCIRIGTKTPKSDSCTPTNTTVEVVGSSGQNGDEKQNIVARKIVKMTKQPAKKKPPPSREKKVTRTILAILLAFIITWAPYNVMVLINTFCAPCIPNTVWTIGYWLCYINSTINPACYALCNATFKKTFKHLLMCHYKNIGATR

[8] = molecular target: Sodium-dependent dopamine transporter (Homo sapiens, UniProt Q01959)
[9] = molecular target: 5-hydroxytryptamine receptor 5A (Homo sapiens) (UniProt P47898)
Sequence of 5-hydroxytryptamine receptor 5A (Homo sapiens) (P47898 whole entry): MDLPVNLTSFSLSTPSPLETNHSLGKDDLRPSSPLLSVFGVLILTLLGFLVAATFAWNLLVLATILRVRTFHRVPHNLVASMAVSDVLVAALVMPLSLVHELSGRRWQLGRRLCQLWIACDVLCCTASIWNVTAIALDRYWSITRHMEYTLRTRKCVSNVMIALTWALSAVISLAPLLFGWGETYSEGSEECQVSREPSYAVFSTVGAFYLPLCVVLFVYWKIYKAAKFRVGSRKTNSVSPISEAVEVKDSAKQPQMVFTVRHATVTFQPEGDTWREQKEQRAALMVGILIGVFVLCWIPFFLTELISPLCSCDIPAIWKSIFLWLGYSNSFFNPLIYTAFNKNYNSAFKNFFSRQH

[10] = molecular target: D(3) dopamine receptor (Homo sapiens) (UniProt P35462)
Sequence of D(3) dopamine receptor (Homo sapiens) (P35462 whole entry): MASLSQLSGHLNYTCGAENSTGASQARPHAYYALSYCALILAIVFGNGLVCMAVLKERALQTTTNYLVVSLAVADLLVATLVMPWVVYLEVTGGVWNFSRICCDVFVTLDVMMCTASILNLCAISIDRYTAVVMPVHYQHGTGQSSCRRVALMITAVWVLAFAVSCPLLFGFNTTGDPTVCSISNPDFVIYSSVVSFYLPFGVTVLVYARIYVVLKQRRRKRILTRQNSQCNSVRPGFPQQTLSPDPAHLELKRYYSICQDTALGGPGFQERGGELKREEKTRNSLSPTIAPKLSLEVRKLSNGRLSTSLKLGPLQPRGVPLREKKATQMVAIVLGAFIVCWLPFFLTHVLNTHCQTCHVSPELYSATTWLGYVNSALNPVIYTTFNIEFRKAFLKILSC

[11] = molecular target: Histamine H1 receptor (Homo sapiens) (UniProt P35367)
Sequence of Histamine H1 receptor (Homo sapiens) (P35367 whole entry): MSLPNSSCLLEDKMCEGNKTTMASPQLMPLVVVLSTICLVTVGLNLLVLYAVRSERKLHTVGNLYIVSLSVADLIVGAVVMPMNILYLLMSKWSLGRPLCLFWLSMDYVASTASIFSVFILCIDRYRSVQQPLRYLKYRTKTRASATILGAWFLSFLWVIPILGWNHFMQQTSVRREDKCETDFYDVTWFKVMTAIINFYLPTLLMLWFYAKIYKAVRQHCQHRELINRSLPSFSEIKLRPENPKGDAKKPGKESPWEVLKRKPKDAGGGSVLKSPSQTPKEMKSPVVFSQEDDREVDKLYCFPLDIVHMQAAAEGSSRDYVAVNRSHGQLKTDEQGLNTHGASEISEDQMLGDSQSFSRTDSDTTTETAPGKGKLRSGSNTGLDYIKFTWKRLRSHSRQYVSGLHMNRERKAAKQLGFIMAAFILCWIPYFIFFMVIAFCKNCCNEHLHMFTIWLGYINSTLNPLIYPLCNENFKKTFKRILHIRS

[12] = molecular target: GABA-A receptor; anion channel (Rattus norvegicus) (UniProt O09028+P15431+P18506+P18508+P19969+P20236+P23574+P23576+P28471+P28473+P30191+P62813+P63079+P63138+Q91ZM7+Q9ES14)
[13] = molecular target: 5-hydroxytryptamine receptor 7 (Homo sapiens, UniProt P34969)
Sequence of 5-hydroxytryptamine receptor 7 (P34969 whole entry): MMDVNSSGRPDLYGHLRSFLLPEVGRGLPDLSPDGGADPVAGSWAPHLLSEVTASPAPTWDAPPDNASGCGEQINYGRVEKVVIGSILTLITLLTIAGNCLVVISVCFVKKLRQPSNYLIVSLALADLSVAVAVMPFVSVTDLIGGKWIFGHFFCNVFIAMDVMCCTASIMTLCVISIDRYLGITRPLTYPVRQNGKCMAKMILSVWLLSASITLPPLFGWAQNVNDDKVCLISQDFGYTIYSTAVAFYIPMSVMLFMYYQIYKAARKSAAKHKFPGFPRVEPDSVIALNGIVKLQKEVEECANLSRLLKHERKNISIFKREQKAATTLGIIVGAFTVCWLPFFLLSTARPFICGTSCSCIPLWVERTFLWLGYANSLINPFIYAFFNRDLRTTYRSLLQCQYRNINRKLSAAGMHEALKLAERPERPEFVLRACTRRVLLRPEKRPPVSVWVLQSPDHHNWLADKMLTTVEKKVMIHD

[14] = molecular target: Mu-type opioid receptor (Homo sapiens) (UniProt P35372)
Sequence of Mu-type opioid receptor (Homo sapiens) (P35372 whole entry): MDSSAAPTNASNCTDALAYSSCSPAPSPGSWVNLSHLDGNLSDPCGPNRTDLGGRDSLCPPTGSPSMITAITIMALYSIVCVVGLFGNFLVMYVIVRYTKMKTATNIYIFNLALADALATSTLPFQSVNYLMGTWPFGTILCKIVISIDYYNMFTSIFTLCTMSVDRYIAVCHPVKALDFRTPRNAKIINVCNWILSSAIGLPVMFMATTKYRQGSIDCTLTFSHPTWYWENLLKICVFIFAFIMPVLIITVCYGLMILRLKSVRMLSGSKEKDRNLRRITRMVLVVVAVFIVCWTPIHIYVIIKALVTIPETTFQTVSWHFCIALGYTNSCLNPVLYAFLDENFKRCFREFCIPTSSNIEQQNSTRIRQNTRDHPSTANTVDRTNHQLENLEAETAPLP

[15] = molecular target: Alpha-1D adrenergic receptor (Homo sapiens) (UniProt P25100)
Sequence of Alpha-1D adrenergic receptor (Homo sapiens) (P25100 whole entry): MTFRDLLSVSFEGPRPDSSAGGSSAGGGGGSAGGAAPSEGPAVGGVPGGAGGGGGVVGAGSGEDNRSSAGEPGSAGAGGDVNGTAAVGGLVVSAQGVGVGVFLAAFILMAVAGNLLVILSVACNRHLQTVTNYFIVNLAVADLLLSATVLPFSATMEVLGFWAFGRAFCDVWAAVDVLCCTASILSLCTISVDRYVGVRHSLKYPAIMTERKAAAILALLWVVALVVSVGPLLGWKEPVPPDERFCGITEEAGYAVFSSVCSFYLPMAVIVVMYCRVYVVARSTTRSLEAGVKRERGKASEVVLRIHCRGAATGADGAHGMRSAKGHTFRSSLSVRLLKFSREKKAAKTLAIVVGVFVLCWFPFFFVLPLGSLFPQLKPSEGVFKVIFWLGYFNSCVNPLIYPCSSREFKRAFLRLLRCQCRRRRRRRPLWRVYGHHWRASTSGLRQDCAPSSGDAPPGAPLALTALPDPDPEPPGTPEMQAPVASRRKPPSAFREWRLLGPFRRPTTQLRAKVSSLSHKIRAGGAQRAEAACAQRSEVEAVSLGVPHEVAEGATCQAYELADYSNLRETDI

[16] = molecular target: Delta-type opioid receptor (Homo sapiens) (UniProt P41143)
[17] = molecular target: Sigma intracellular receptor 2 (Homo sapiens) (UniProt Q5BJF2)
Sequence of Sigma intracellular receptor 2 (Homo sapiens) (Q5BJF2 whole entry): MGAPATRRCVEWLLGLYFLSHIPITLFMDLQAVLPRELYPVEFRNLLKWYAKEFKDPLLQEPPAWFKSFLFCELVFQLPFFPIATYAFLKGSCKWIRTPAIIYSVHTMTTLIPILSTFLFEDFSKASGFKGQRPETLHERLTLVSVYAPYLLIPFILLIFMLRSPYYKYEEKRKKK

[18] = molecular target: 5-hydroxytryptamine receptor 1B (Homo sapiens) (UniProt P28222)
Sequence of 5-hydroxytryptamine receptor 1B (Homo sapiens) (P28222 whole entry): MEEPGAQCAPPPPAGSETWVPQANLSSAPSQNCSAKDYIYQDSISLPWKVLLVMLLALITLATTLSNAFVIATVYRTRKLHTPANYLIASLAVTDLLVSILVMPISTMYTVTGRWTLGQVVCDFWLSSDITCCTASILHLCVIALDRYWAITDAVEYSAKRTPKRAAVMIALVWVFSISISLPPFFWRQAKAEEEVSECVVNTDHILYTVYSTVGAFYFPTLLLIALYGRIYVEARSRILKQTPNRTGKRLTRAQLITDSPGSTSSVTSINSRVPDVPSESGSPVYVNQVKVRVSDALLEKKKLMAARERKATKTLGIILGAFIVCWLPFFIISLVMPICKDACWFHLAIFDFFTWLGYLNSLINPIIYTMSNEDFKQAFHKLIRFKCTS

[19] = molecular target: Beta-1 adrenergic receptor (Homo sapiens) (UniProt P08588)
Sequence of Beta-1 adrenergic receptor (Homo sapiens) (P08588 whole entry, looked up): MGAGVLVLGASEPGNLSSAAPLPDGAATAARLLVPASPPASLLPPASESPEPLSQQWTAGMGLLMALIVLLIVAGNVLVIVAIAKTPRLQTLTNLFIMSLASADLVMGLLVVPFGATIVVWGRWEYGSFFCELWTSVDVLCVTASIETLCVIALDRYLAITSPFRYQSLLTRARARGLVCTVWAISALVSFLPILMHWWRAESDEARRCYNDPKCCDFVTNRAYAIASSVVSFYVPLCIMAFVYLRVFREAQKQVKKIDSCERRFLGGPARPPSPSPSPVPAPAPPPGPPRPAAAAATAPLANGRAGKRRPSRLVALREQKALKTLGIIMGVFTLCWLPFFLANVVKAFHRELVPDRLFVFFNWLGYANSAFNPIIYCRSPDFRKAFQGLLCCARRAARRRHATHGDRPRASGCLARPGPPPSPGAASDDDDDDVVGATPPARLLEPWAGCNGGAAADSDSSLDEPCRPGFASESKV

[20] = molecular target: 5-hydroxytryptamine receptor 2A (Homo sapiens) (UniProt P28223)
[21] = molecular target: D(4) dopamine receptor (Homo sapiens) (UniProt P21917)
Sequence of D(4) dopamine receptor (Homo sapiens) (P21917 whole entry): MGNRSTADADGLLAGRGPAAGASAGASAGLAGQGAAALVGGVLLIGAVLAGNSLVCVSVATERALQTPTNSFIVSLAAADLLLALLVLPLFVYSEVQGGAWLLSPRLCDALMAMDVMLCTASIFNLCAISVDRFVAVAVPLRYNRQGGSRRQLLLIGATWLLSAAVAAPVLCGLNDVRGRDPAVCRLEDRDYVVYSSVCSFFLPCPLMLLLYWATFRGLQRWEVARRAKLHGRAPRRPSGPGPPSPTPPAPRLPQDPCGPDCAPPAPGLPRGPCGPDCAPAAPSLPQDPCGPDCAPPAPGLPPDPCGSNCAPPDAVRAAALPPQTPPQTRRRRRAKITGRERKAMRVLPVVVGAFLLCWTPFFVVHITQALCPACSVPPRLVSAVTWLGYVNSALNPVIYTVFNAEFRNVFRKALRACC

| Structure (SMILES) | inhibition [1] [%] | inhibition [2] [%] | inhibition [3] [%] | inhibition [4] [%] | inhibition [5] [%] | inhibition [6] [%] | inhibition [7] [%] | inhibition [8] [%] | inhibition [9] [%] | inhibition [10] [%] | inhibition [11] [%] | inhibition [12] [%] | inhibition [13] [%] | inhibition [14] [%] | inhibition [15] [%] | inhibition [16] [%] | inhibition [17] [%] | inhibition [18] [%] | inhibition [19] [%] | inhibition [20] [%] | other results |
| --- | --- | --- | --- | --- | --- | --- | --- | --- | --- | --- | --- | --- | --- | --- | --- | --- | --- | --- | --- | --- | --- |
| c1ccc(C2CCN(c3cnc4c(N5CCOCC5)nccn34)CC2)cc1 | 25.7 | 1.09 | -5.45 | 6.44 | 3.12 | 17.4 | 9.44 | 85.9 | 19 | -6.13 | 11.2 | 59.8 | 20.2 | 19.6 | 10.7 | 2.73 | 31.6 | 8.68 | 23.5 | 13.1 | inhibition [21]: 0.44% |
| COCCc1ccc(-c2c(C)nc3c(N4CCOCC4)ccnn23)cn1 [JNJ-42396302] | 22.9 | 11.5 | 5.21 | 14.5 | 0.57 | 16 | 10.4 | 9.55 | 3.93 | 24.1 | 24.6 | 0.32 | 96.1 | -1.51 | 15.3 | 7.84 | 3.07 | -0.76 | 3.43 | 45.9 | inhibition [21]: -3.39% |
